Experimental data published in patent US20220016215A1, “GIP RECEPTOR AGONIST PEPTIDE COMPOUNDS AND USES THEREOF” (TAKEDA PHAARMACEUTICAL COMPANY LIMITED, priority 2018, published 2022).
Marks after values point to notes of the source that are not given here.

What was measured:
[1] = system: morphine (0.6 mg/kg, s.c.)-induced emesis in ferrets; experiment: Morphine-induced acute emetic model in male ferrets; assay type: in vivo, ferret
Description: Example 6—In-Vivo Effect of GIP Receptor Agonist Peptides on Emesis in Morphine Induced Emesis Model in Live Male Ferrets
Effect of subcutaneously administered GIP receptor agonist peptide in morphine-induced acute emetic model.
To evaluate the antiemetic effect, the GIP receptor agonist peptides other than natural human GIP were subcutaneously administered into male ferrets 30 minutes before morphine administration. […]. Up to 60 minutes after morphine administration, the condition of the ferrets was monitored to record the frequencies and time points of abdominal contraction motions, vomiting behaviors, licking with the tongue, and fidgety behavior occurring
Effects of Subcutaneously Administered GIP Receptor Agonist Peptides in Morphine-Induced Acute Emetic Model
30 nmol/kg of Compounds 3 and 5 were dissolved with a vehicle (0.09 w/v % tween 80/10% DMSO/saline), respectively, to prepare test solutions. […] of the test solutions and the vehicle were subcutaneously administered to ferrets (4 in each group), respectively. At the time of each of 4 hours, after administration, 0.6 mg/kg of morphine was subcutaneously administered. […] See results in Tables 6, 7 and 8.
(§1) 10 nmol/kg of each compound dissolved with a vehicle (0.09 w/v % tween 80/10% DMSO/saline) respectively, to prepare test solutions. […] of the test solutions and the vehicle were subcutaneously administered to ferrets (4 in each group), respectively. At the time of each of 4 hours, or 120 hours after administration, 0.6 mg/kg of morphine was subcutaneously administered. Up to 360 minutes after morphine administration, the condition of the ferrets was monitored to record the frequencies and time points of abdominal contraction motions, vomiting behaviors, licking with the tongue, and fidgety behavior occurring.
as §1, with “30 nmol/kg” for “10 nmol/kg”, “80/10% DMSO/saline),respectively,” for “80/10% DMSO/saline) respectively,”

human GIPR = molecular target: T1, human GIPR (Homo sapiens, UniProt P48546); experiment: Agonist activity on human GIPR, CRE-luciferase reporter assay (increase in intracellular cAMP as indicator); assay type: cell-based; details: GLP1R EC50 / GIPR EC50
T1 construct: expressed in transfected cells
T1 sequence (P48546 22-466): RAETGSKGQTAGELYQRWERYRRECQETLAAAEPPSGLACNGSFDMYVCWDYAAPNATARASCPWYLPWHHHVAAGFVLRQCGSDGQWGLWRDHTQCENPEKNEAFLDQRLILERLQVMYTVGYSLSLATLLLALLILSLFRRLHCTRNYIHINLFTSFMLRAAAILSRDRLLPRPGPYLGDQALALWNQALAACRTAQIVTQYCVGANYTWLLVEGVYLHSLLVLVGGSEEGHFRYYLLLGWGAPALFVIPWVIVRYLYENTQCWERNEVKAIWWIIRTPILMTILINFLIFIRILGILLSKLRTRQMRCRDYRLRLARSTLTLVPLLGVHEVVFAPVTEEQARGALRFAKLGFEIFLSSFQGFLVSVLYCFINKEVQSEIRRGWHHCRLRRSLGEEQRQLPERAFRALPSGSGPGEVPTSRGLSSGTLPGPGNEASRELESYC
Source text: The human GIPR gene having an identical sequence to Genebank Accession No. U39231 is cloned into a pMSRα-neo vector to prepare hGIPR/pMSRα-neo.
(2) Construction of Reporter Plasmid Expressing Cell
Luciferase reporter gene with a cAMP-responsive sequence located upstream is transferred to a CHO-K1 cell to construct a CRE-LUC/CHO-K1 cell.
(4) Transfer of Human GIPR Gene to CRE-LUC/CHO-K1 Cell and Obtaining of Expressing Cell
The plasmid hGIPR/pMSRα-neo obtained in (1) is transferred to the CRE-LUC/CHO-K1 cell obtained in (2) to obtain a transformant. Subsequently, the cell line inducing the luciferase expression, hGIPR/CRE-LUC/CHO-K1 cell, is selected from the obtained transformant by adding GIP.
25 μL each of the hGIPR/CRE-LUC/CHO-K1 cell is inoculated in a 384-well white plate (Corning) in such a way as to provide 5×10^3 cells/well and may be cultured in a HamF12 medium containing 10% fetal bovine serum, 100 U/mL penicillin, and 100 μg/mL streptomycin in a CO2 incubator at 37° C. overnight. 5 μL of a medium containing a test compound is added to the cells and incubated for 4 hours at the indicated concentration in a CO2 incubator at 37° C. Steady-Glo (Promega) is added in amounts of 30 μL and shaken under light shielding. Twenty minutes later, luciferase activity is measured using a plate reader Envision (PerkinElmer). The GIPR agonist activity is calculated with increase in intracellular cAMP concentration as the indicator when the luciferase activity in the presence of 10 nM of GIP was 100% and the luciferase activity in the case of adding DMSO instead of the test compound was 0%.

[2] = ferrets, morphine 0.6 mg/kg s.c. 0.5 h after drug, 106-[…] s.c. (30 nmol/kg)
[3] = ferrets, morphine 0.6 mg/kg s.c. 0.5 h after drug, 106-[…] s.c. (30 nmol/kg), non-responders counted as 30 min

CC[C@H](C)[C@H](NC(=O)[C@H](CO)NC(=O)[C@H](Cc1ccc(O)cc1)NC(=O)[C@H](CC(=O)O)NC(=O)[C@H](CO)NC(=O)[C@@H](NC(=O)[C@H](Cc1ccccc1)NC(=O)[C@@H](NC(=O)CNC(=O)[C@H](CCC(=O)O)NC(=O)[C@H](C)NC(=O)[C@H](Cc1ccc(O)cc1)NC(C)=O)[C@@H](C)O)[C@@H](C)CC)C(=O)N[C@@H](C)C(=O)N[C@@H](CCSC)C(=O)N[C@@H](CC(=O)O)C(=O)N[C@@H](CCCCN)C(=O)N[C@H](C(=O)N[C@@H](Cc1c[nH]cn1)C(=O)N[C@@H](CCC(N)=O)C(=O)N[C@@H](CCC(N)=O)C(=O)N[C@@H](CC(=O)O)C(=O)N[C@@H](Cc1ccccc1)C(=O)N[C@H](C(=O)N[C@@H](CC(N)=O)C(=O)N[C@@H](Cc1c[nH]c2ccccc12)C(=O)N[C@@H](CC(C)C)C(=O)N[C@@H](CC(C)C)C(=O)N[C@@H](C)C(=O)N[C@@H](CCC(N)=O)C(=O)N[C@@H](CCCCN)C(=O)NCC(=O)N[C@@H](CCCCN)C(=O)N[C@@H](CCCCN)C(=O)N[C@@H](CC(N)=O)C(=O)N[C@@H](CC(=O)O)C(=O)N[C@@H](Cc1c[nH]c2ccccc12)C(=O)N[C@@H](CCCCN)C(=O)N[C@@H](Cc1c[nH]cn1)C(=O)N[C@@H](CC(N)=O)C(=O)N[C@H](C(=O)N[C@H](C(=O)N[C@@H](CCC(N)=O)C(=O)O)[C@@H](C)CC)[C@@H](C)CC)C(C)C)[C@@H](C)CC [Compound 1]
Emesis: Duration [1, 2]: 0.0 ± 0.0 min | Emesis: Frequency [1, 2]: 0.0 ± 0.0 | Emesis: No. of animals (responder/used) [1, 2]: 0/4 # | Fidget: Duration [1, 2]: 0.0 ± 0.0 min | Fidget: Frequency [1, 2]: 0.0 ± 0.0 | Fidget: No. of animals (responder/used) [1, 2]: 0/4 | Licking: Duration [1, 2]: 0.0 ± 0.0 min | Licking: Frequency [1, 2]: 0.0 ± 0.0 | Licking: No. of animals (responder/used) [1, 2]: 0/4 # | Retching: Duration [1, 2]: 0.0 ± 0.0 min | Retching: Frequency [1, 2]: 0.0 ± 0.0 | Retching: No. of animals (responder/used) [1, 2]: 0/4 # | Vomiting: Duration [1, 2]: 0.0 ± 0.0 min | Vomiting: Frequency [1, 2]: 0.0 ± 0.0 | Vomiting: No. of animals (responder/used) [1, 2]: 0/4 | Emesis: Latency [1, 3]: 30.0 ± 0.0 min | Fidget: Latency [1, 3]: 30.0 ± 0.0 min | Licking: Latency [1, 3]: 30.0 ± 0.0 min | Retching: Latency [1, 3]: 30.0 ± 0.0 min | Vomiting: Latency [1, 3]: 30.0 ± 0.0 min | Attenuation of morphine-induced emesis (in words) ([1]; male ferrets, 30 nmol/kg s.c. 30 minutes before morphine 0.6 mg/kg s.c.): completely attenuated | Comment: Anti-Emetic Activity (inhibition) on morphine-induced emesis ([1]; male ferrets, summary of the morphine experiments): 100% inhibition | Selectivity Ratio (B/A) (human GIPR): 30,200
